Target: hyaluronidase (HAase)
Assay: Hyaluronidase (HAase) inhibitory activity, N-acetylglucosamine from hyaluronic acid, DMAB absorbance at 540 nm
Assay type: biochemical
Method: The hyaluronidase (HAase) inhibitory activity was identified by measuring N-acetylglucosamine produced by degradation of hyaluronic acid by hyaluronidase. 12.5 μL of HAase (8 mg/mL) dissolved in 0.1 M acetate buffer (pH 3.5) was mixed with 12.5 μL of agar partial hydrolysis product (PHP) at a concentration of 9 mg/mL and reacted at 37° C. for 20 minutes. To activate the HAase, the mixture was added with 25 μL of 12.5 mM CaCl2) and reacted at 37 °C for 20 minutes, and added with 62.5 μL of hyaluronic acid (2.4 mg/ml) dissolved in 0.1 M acetate buffer (pH 3.5) and reacted at 37° ° C. for 40 minutes again. To stop the substrate-enzyme reaction, the reaction solution was added with 25 μl of 0.4 N NaOH and 25 μl of 0.4 N potassium tetraborate, reacted at 100° C. for 3 minutes, and then cooled. The reaction solution was added with 750 μl of a DMAB solution and cultured at 37 °C for 20 minutes, and the absorbance was measured at 540 nm. The inhibitory activity was calculated using the following equation.

IC50 (hyaluronidase inhibition): 28 ± 10 µg/mL | Inhibition (%) (sample solution 1 mg/mL): 65.32 ± 0.20%
SMILES: O=C([O-])c1cc(=O)c2c(OCC(O)COc3cccc4oc(C(=O)[O-])cc(=O)c34)cccc2o1.[Na+].[Na+] [DSCG, Disodium cromoglycate]
